The values below come from patent EP0434750B1 (priority 1988, dated 1990).

Read-outs that look alike come from different tables or passages of the source.

What all share (format): in vivo
For data set [1], the system named is C57 black mice. The data set is described as follows: Lethality of MPTP regimens in mice. Particulars: 2.5, 5 and 10 mg/kg/h x 4 MPTP regimens. On the procedure: (§1) All other studies are performed in C57 black mice.
(§2) Approximately 20% of the mice die after the 20 mg/kg/h x 4 regimen. […]

Data set [2] can be described thus: Lethality of MPTP regimens in mice. Conditions: mouse, in vivo, ip. On the procedure:
as §1, §2

For data set [3], the system named is C57 black mice. The experiment in a line: Striatal DA, DOPAC and HVA content in mice after MPTP. On the procedure:
Male C57BL/6J IMR mice 6-8 weeks of age are used throughout except in one experiment (see below) in which CB6F1 [(BALB/cByJ IMR x C57BL/gJ IMR)F1] mice of a similar age are used. Mice are housed five per cage in plexiglass cages with free access to food and water in a colony room maintained at 23 ± 1°C. Fluorescent lighting in the room is automatically turned on at 06.00 hours and off at 18.00 hours.
as §1
The mouse striatum is obtained by placing the brain on its dorsal surface and making two coronal cuts; the first at the caudal end of the olfactory bulbs, the second at the level of the optic chiasma. After placing the resulting brain slice on its rostral surface, one horizontal cut is made just below the corpus callosum and another just above the anterior commissure. Remaining parietotemporal cortex is trimmed away using the external capsule as a landmark. Septal tissue lying between the caudate nuclei is removed by cutting along the tissue planes created by the frontal horns of the lateral ventricles. Striatal tissue thus isolated weighs approximately 20 mg per animal. Immediately after dissection, tissue is wrapped in aluminum foil and stored in liquid nitrogen until assay, with the exception of tissue for uptake studies which is used immediately.
The striatum is weighed, placed in a tube containing 1 ml of 0.4 normal perchloric acid, then homogenized with a Beckman polytron at a setting of 5 for 10 seconds. The homogenate is centrifuged at approximately 20,000 x g for 15 minutes. Concentrations of dopamine (DA), DOPAC and HVA in the supernatant are determined by reverse-phase liquid chromatography coupled with electrochemical detection according to the method of Mayer, G.S. et al., J. Chromatogr. 255, 533 (1983), with minor modifications. The mobile phase is prepared by mixing 965 ml of 0.15 M monochloroacetic acid with 35 ml of acetonitrile and adding 193 mg of sodium octyl sulfate. This solution is filtered and degassed and then 18 ml of tetrahydrofuran are added. Using this mobile phase at a flow rate of 1.3 ml/min, DA, DOPAC and HVA are resolved using a 4.6 mm x 25 cm C-18, 5 µ column (Brownless Labs). Detection and quantitation are performed using a dual series electrode detector (Coulochem Model 5100, Environmental Systems Associates, Wiggins, Mass.). Electrode potentials are set at +0.4 V (electrode 1) and -0.3 V (electrode 2). The response on electrode 2 is monitored (10 mV strip chart recorder) and used for quantitation relative to peak heights of known amounts of standards.

Setting [4] is: one week after MPTP 20 mg/kg/h x 4.
The mark [5] stands for this setting: three months after MPTP 20 mg/kg/h x 4.

`CN1CC=C(c2ccccc2)CC1` [MPTP, 1-Methyl-4-phenyl-1,2,5,6-tetrahydropyridine]: the lethality entry in data set [1] was “No lethality”. Further, the mortality in data set [2] (20 mg/kg/h x 4 regimen, read-out: mice that die) was around 20%; in data set [2] (read-out: animals killed), above 50%. Moreover, the “striatal DA level, % of control” value was 69 % of control in data set [3] (15 months after MPTP 20 mg/kg/h x 4) and 28 % of control in data set [3] (setting [4]). For the same compound, the “striatal concentration of DOPAC” value in data set [3] (MPTP 20 mg/kg/h x 4, control 0.96 (±0.14)) is 0.28 (±0.02) µg/g. In data set [3] (MPTP 20 mg/kg/h x 4, control 1.38 (±0.05)), the “striatal concentration of HVA” value is on record as 0.60 (±0.06) µg/g. Further, the “DA” value in data set [3] (mouse striatum one week after MPTP 20 mg/kg/h x 4 i.p.) came out at 2.8 ± 0.5 µg/g; in data set [3] (mouse striatum one week after MPTP 30 mg/kg/day x 10 i.p.) it was 3.5 ± 0.3 µg/g. Also, the “% Depletion of striatal DA” value in data set [3] (setting [4]) came out at 74%; in data set [3] (one week after MPTP 30 mg/kg/day x 10), 67%. Further, the entries for the “HVA, % of control” value in data set [3] (setting [4]) and in data set [3] (setting [5]) were 43 % of control and 80 % of control, respectively. Moreover, the “depletion of striated DA” value in data set [3] (setting [5]) stood at 34%. The compound also had an HVA in data set [3] (three months after MPTP, control 1.36 ± 0.11) of 1.09 ± 0.04 µg/g. The compound further gave a DOPAC in data set [3] (three months after MPTP, controls 1.53 ±0.09 µg/g) of 1.03 ± 0.03 µg\g.
